In one test the target is ROCK-II (Homo sapiens, UniProt O75116). The test is described as follows: ROCK-II 33P kinase assay. Format: biochemical. Conditions: read-out: ROCK-II activity as percentage of control without inhibitor. Here is the method: (§1) All assays (25.5 μl) were carried out at room temperature (21° C.) and were linear with respect to time and enzyme concentrations under the conditions used. Assays were performed for 30 minutes except assays for LCK and PKB which were performed for 15 minutes using Multidrop Micro reagent dispensers (Thermo Electron Corporation, Waltham, Mass. 02454, USA) in a 96-well format. The concentration of […] [γ-^33P] ATP (800 cpm/pmol) in the assays was one of three concentrations (5, 20 or 50 μM) in order to be at or below Km for ATP for the enzyme. Assays were initiated with MgATP and stopped by addition of 5 μl of 0.5M orthophosphoric acid. Assays were then harvested onto P81 filterplates using a unifilter harvester (PerkinElmer, Boston, Mass. 02118, USA), with a wash buffer of 50 mM orthophosphoric acid. Filterplates were then air dried overnight. 10 μl of Microscint O was added per well prior to counting for radioactivity.
(§2) MKK1, JNK/SAPK1c, SAPK2a/p38, SAPK2b/p38β2, SAPK3/p38γ, SAPK4/p38δ, MAPK2/ERK2, MAPKAP-K1β, MAPKAP-K2, MSK1, PRAK, PKA, PKCα, PDK1, SGK, p70S6K, GSK3β, ROCK-II, PRK2, AMPK, CHK1, CHK2, CK2, PHK, LCK, were assayed according to Davies et al., (Davies, S. P., Reddy, H., Caivano, M. and Cohen, P. Biochem. J. 351, 95-105, 2000.
(§3) CSK and CDK2/cyclinA, were assayed according to Bain et al. (Bain J, McLauchlan H, Elliott M, Cohen P. Biochem J. 371, 199-204, 2003., except that ATP concentrations were either 5, 20 or 50 micromolar so that they were at or below the Km for ATP. The ATP concentrations used were as follows, 5 μM for assays of MKK1, SAPK3, SAPK4, GSK3β, PRK2 CK2 20 μm for assays of JNK, SAPK2β, MAPKAP-K2, MSK1, PRAK, PKA, […], PDK1, SGK, p70S6K, ROCK-II, CHK1, CHK2, CSK, CDK2, and 50 μM for assays of SAPK2a, MAPK2/ERK2, AMPK, LCK, PHK and MAPKAP-K1β.

The target of another test is NEK6 (Homo sapiens, UniProt Q9HC98). The experiment in a line: biochemical. To be noted: read-out: NEK6 activity as percentage of control without inhibitor. How it is done: as §1
NEK6 (5-20 mU diluted in 50 mM Tris (pH 7.5), 0.1 mM EGTA, 1 mg/ml BSA, 0.1%, β-Mercaptoethanol) is assayed against NEK6 peptide ([…]) in a final volume of 25.5 μl containing 50 mM Tris (pH 7.5), 0.1 mM EGTA, 0.01% Brij, 0.1%, β-Mercaptoethanol, NEK6 peptide (0.3 mM), 10 mM magnesium acetate and 0.05 mM [^33P- γATP](500-1000 cpm/pmole) and incubated for 30 min at room temperature.

In another test the target is MAPKAP-K1a (Homo sapiens, UniProt Q15418). The experiment in a line: MAPKAP-K1a 33P kinase assay. It is filed as biochemical. To be noted: read-out: MAPKAP-K1a activity as percentage of control without inhibitor. How it is done:
as §1
MAPKAP-K1a (5-20 mU diluted in 20 mM MOPS pH 7.5, 1 mM EDTA, 0.01% Brij35, 5% glycerol, 0.1% β-mercaptoethanol, 1 mg/ml BSA) is assayed against […] in a final volume of 25.5 μl containing 50 mM Na-β-glycerophosphate pH 7.5, 0.5 mM EDTA, 30 μM substrate peptide, 10 mM magnesium acetate and 0.05 mM [33P- γATP] (50-1000 cpm/pmole) and incubated for 40 min at room temperature.

For another test, the target named is T1, SAPK4/p38d (Homo sapiens, UniProt O15264).
T1 sequence (O15264 1-365): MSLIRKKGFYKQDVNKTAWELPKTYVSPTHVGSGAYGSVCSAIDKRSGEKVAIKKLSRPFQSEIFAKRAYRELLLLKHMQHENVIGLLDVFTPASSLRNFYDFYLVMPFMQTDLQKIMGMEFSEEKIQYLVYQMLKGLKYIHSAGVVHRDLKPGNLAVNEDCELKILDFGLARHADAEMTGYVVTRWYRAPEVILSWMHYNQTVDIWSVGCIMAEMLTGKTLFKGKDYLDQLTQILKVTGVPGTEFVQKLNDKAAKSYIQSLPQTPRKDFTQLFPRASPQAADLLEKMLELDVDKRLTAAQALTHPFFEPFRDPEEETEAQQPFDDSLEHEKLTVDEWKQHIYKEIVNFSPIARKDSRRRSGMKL
The test is described as follows: SAPK4/p38d 33P kinase assay. It is filed as biochemical. Conditions: read-out: SAPK4/p38d activity as percentage of control without inhibitor. How it is done:
as §1, §2, §3

Another test concerns the target T2, PRAK (Homo sapiens, UniProt Q8IW41).
T2 sequence (Q8IW41 1-473): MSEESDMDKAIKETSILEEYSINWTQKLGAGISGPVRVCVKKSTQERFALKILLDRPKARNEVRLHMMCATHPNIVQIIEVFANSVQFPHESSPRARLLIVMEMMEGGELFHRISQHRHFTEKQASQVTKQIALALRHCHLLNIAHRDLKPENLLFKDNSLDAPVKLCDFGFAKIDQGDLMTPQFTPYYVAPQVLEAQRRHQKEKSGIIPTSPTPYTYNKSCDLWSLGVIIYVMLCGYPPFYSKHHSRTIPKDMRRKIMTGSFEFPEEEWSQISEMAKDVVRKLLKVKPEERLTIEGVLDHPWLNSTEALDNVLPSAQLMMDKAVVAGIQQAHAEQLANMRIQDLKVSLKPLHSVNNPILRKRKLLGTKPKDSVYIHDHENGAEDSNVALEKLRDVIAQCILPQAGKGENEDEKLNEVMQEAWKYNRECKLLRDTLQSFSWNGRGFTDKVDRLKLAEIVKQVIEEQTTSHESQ
The test is described as follows: PRAK 33P kinase assay. It is filed as biochemical. To be noted: read-out: PRAK activity as percentage of control without inhibitor; for remaining activity at 1 µM: inhibitor 1 μM; for remaining activity at 10 µM: inhibitor 10 μM. How it is done: as §1, §2, §3

A further test concerns the target GSK3b (Homo sapiens, UniProt P49841). The experiment in a line: GSK3b 33P kinase assay. It is filed as biochemical. Conditions: read-out: GSK3b activity as percentage of control without inhibitor. Here is the method: as §1, §2, §3
The target in another test is CSK (Homo sapiens, UniProt P41240). The test is described as follows: CSK 33P kinase assay. Format: biochemical. Conditions: read-out: CSK activity as percentage of control without inhibitor. How it is done: as §1, §3

Like-named read-outs stand apart in the source and are kept apart here.

Chain of ROCK-II (O75116 whole entry, species assumed): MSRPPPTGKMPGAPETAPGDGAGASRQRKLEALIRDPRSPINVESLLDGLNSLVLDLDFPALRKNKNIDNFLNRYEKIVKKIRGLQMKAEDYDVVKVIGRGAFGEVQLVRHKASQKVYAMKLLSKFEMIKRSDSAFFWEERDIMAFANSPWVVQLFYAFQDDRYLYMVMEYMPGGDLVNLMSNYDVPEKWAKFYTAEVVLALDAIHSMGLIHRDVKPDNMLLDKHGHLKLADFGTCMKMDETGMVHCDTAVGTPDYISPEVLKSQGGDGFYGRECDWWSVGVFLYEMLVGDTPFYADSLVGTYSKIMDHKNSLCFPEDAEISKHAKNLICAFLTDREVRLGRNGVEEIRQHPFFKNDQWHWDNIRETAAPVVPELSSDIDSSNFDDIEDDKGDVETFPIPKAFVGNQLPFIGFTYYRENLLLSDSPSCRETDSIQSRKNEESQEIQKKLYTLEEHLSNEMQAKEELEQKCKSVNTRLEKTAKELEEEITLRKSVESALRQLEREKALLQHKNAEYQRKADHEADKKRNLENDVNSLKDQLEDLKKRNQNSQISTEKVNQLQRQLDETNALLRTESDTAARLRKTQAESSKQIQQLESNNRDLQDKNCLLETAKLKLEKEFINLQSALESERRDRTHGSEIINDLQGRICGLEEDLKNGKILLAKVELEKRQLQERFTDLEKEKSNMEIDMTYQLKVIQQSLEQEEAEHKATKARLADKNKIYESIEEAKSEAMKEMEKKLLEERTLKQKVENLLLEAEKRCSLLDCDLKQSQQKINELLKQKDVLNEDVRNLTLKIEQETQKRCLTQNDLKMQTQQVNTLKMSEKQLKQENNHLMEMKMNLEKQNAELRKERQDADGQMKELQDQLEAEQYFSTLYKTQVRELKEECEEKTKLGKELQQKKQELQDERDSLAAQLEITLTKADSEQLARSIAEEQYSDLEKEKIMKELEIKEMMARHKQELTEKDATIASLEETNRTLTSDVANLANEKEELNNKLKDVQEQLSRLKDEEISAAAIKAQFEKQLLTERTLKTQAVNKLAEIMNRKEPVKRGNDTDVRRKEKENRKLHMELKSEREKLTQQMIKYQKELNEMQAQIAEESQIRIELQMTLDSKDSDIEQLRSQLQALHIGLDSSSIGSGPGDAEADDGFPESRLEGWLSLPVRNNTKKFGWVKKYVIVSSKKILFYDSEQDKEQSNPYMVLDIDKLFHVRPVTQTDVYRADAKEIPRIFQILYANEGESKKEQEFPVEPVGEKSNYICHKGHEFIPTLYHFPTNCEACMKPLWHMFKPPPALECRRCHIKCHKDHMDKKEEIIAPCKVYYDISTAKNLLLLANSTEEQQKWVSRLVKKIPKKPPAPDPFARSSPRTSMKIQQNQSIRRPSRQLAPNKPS
Chain of MAPKAP-K1a (Q15418 whole entry, species assumed): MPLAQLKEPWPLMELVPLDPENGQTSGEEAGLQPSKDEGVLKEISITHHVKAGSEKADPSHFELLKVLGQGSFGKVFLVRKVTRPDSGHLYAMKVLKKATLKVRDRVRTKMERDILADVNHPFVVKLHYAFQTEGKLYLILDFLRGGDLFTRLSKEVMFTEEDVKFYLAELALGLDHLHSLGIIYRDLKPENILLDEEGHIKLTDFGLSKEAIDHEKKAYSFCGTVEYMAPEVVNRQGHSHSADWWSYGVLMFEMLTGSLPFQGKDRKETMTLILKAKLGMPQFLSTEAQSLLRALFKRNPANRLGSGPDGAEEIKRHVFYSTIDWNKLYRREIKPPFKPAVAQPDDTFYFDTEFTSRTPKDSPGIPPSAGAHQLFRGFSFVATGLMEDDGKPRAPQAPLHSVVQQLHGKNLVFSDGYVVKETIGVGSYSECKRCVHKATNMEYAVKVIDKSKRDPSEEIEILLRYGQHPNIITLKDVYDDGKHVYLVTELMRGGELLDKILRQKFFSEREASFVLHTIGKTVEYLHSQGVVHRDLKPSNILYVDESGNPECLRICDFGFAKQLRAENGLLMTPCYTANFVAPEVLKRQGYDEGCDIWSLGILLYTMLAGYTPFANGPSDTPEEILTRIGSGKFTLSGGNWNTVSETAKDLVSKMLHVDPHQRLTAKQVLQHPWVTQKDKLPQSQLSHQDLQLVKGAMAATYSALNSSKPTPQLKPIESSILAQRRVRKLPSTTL
Chain of CSK (P41240 whole entry, species assumed): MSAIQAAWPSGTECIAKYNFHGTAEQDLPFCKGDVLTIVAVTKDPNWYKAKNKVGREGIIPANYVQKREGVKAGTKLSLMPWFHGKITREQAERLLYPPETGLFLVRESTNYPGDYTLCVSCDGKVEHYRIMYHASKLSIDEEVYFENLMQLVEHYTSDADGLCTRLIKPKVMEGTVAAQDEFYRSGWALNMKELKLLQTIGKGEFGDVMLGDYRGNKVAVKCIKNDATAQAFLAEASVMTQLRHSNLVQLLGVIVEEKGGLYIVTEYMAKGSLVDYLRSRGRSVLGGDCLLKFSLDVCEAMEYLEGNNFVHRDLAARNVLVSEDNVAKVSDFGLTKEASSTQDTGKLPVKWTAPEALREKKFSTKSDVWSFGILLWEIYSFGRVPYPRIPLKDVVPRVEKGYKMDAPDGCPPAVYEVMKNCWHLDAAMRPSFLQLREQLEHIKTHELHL
Chain of NEK6 (Q9HC98 whole entry, species assumed): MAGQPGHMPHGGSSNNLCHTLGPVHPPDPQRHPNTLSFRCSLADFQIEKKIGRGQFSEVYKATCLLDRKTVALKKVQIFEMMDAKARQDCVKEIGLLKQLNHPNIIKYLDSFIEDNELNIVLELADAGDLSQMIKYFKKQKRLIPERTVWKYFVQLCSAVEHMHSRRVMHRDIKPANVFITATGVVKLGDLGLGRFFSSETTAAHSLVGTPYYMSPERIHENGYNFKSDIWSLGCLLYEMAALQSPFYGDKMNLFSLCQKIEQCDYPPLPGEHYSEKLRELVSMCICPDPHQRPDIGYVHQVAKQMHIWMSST
Chain of GSK3b (P49841 whole entry, species assumed): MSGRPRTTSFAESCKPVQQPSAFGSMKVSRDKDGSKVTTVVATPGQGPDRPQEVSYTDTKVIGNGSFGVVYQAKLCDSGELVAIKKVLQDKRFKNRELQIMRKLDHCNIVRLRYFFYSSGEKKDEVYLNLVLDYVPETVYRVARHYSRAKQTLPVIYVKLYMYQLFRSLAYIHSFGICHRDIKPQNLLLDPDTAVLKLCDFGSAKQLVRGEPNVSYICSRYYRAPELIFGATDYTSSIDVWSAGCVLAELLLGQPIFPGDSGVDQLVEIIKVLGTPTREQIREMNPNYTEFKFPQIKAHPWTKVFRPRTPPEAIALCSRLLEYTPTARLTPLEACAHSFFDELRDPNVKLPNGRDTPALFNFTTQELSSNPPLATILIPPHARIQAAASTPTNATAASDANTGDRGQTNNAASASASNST

In the case of `COc1ccc2c3c([nH]c2c1)C(C)=NCC3` [Harmaline], the remaining activity at 1 µM at ROCK-II (inhibitor 1 μM) came to 99%; on NEK6 (inhibitor 1 μM), 99%; on MAPKAP-K1a (inhibitor 1 μM), 98%; on SAPK4/p38d (inhibitor 1 μM) it was 76%; on PRAK, 88%; at GSK3b it was 77%. Besides, the remaining activity at 1 µM at CSK turned out to be 64%. Further, the remaining activity at 10 µM on ROCK-II (inhibitor 10 μM) came out at 81%; at NEK6 (inhibitor 10 μM), 87%; on MAPKAP-K1a (inhibitor 10 μM), 90%; at SAPK4/p38d (inhibitor 10 μM), 113%; on PRAK, 93%; on GSK3b it was 82%. The remaining activity at 10 µM at CSK is 90%.
Regarding `CC1=NCCc2c1[nH]c1cc(O)ccc21` [Harmalol], the remaining activity at 1 µM came out at 96% at ROCK-II (inhibitor 1 μM); 94% on NEK6 (inhibitor 1 μM); 101% on MAPKAP-K1a (inhibitor 1 μM); 101% at SAPK4/p38d (inhibitor 1 μM); 84% on PRAK; 90% on GSK3b (inhibitor 1 μM). Besides, the remaining activity at 1 µM on CSK (inhibitor 1 μM) came to 110%. Moreover, the remaining activity at 10 µM on ROCK-II (inhibitor 10 μM) is 81%; on NEK6 (inhibitor 10 μM) it was 92%; on MAPKAP-K1a (inhibitor 10 μM), 85%; on SAPK4/p38d (inhibitor 10 μM), 93%; at PRAK it was 78%; on GSK3b (inhibitor 10 μM) it was 73%. Further, at CSK (inhibitor 10 μM), the remaining activity at 10 µM came to 92%.
On to `COc1ccc2c(c1)[nH]c1c(C)nccc12` [Harmine], for which the remaining activity at 1 µM on ROCK-II worked out at 84%; at NEK6, 96%; at MAPKAP-K1a, 105%; on SAPK4/p38d, 96%; on PRAK, 81%; on GSK3b, 82%. In addition, the remaining activity at 1 µM at CSK stood at 92%. The remaining activity at 10 µM came out at 61% on ROCK-II; 99% on NEK6; 92% on MAPKAP-K1a; 82% at SAPK4/p38d; 75% on PRAK; 72% on GSK3b. Further, the remaining activity at 10 µM at CSK came out at 101%.

(Values after US20100063085A1, “METHOD OF TREATING LEARNING IMPAIRMENT IN DOWN'S SYNDROME SUBJECTS” (University Court of The University of Dundee, priority 2008, published 2010).)
